Several values for one entry are separate records, joined by “and”; a condition that tells them apart may be missing. Identical values can stand only once.

Assay [1] in a line: Propylene homopolymerization in parallel pressure reactor, MCN-1 with ammonium borate activators. Conditions: for activity: isohexane; for average catalyst activity, comparison of the four activators (FIG. 6): MCN-1, polypropylene at 100° C., Table 7 runs.
The nature of assay [2]: Ethylene-octene copolymerization in parallel pressure reactor, non-metallocene catalyst CAT-1. The conditions noted are these: catalyst CAT-1 20 nmol; activator 1.1 equiv; 100° C.; 135 psi; 1-octene 100 uL; TNOAL 0.5 umol. The protocol:
(§1) Solutions of the metal complexes and activators were prepared in a drybox using toluene or methylcyclohexane. Concentrations were typically 0.2 mmol/L. Tri-n-octylaluminum (TNOAL, neat, AkzoNobel) was typically used as a scavenger. Concentration of the TNOAL solution in toluene ranged from 0.5 to 2.0 mmol/L.
(§2) Polymerizations were carried out in a parallel pressure reactor, as generally described in U.S. Pat. Nos. 6,306,658; 6,455,316; 6,489,168; WO 00/09255; and Murphy, V. et al. (2003) “A Fully Integrated High-Throughput Screening Methodology for the Discovery of New Polyolefin Catalysts: Discovery of a New Class of High Temperature Single-Site Group (IV) Copolymerization Catalysts,” J. Am. Chem. Soc., v. 125, pp. 4306-4317, each of which is fully incorporated herein by reference. […] Although the specific quantities, temperatures, solvents, reactants, reactant ratios, pressures, and other variables are frequently changed from one polymerization run to the next, the following describes a typical polymerization performed in a parallel pressure reactor.
(§3) Ethylene-Octene Copolymerization (EO).
(§4) A pre-weighed glass vial insert and disposable stirring paddle were fitted to each reaction vessel of the reactor, which contains 48 individual reaction vessels. The reactor was then closed and purged with ethylene. Each vessel was charged with enough solvent (typically isohexane) to bring the total reaction volume, including the subsequent additions, to the desired volume, typically 5 mL. 1-octene, if required, was injected into the reaction vessel and the reactor was heated to the set temperature and pressurized to the predetermined pressure of ethylene, while stirring at 800 rpm. The aluminum compound (such as tri-n-octylaluminum) in toluene was then injected as scavenger followed by addition of the activator solution (typically 1.0-1.2 molar equivalents).
(§5) The catalyst (and activator solutions for Run A) were all prepared in toluene. The catalyst solution (typically 0.020-0.080 μmol of metal complex) was injected into the reaction vessel and the polymerization was allowed to proceed until a pre-determined amount of ethylene (quench value typically 20 psi) had been used up by the reaction. Alternatively, the reaction may be allowed to proceed for a set amount of time (maximum reaction time typically 30 minutes). Ethylene was added continuously (through the use of computer controlled solenoid valves) to the autoclaves during polymerization to maintain reactor gauge pressure (P setpt, +/−2 psig) and the reactor temperature (T) was monitored and typically maintained within +/−1° C. The reaction was quenched by pressurizing the vessel with compressed air. After the reactor was vented and cooled, the glass vial insert containing the polymer product and solvent was removed from the pressure cell and the inert atmosphere glove box, and the volatile components were removed using a Genevac HT-12 centrifuge and Genevac VC3000D vacuum evaporator operating at elevated temperature and reduced pressure. The vial was then weighed to determine the yield of the polymer product. The resultant polymer was analyzed by Rapid GPC (see below) to determine the molecular weight, by FT-IR (see below) to determine percent octene incorporation, and by DSC (see below) to determine melting point (Tm).
(§6) Equivalence is determined based on the mole equivalents relative to the moles of the transition metal in the catalyst complex.
(§7) Activators of the present disclosure can also be used for activating non-metallocene catalysts for polymerization of olefins. Table 4 illustrates copolymerization of ethylene and octene using activators of the present disclosure and non-metallocene catalysts (CAT-1, CAT-2, CAT-3, and CAT-4).

A short description of assay [3]: Ethylene-octene copolymerization in parallel pressure reactor, non-metallocene catalyst CAT-2. The conditions noted are these: catalyst CAT-2 20 nmol; activator 1.1 equiv; 100° C.; 135 psi; 1-octene 100 uL; TNOAL 0.5 umol. As for the experimental part: as §1, §2, §3, §4, §5, §6, §7
Assay [4] can be described thus: Ethylene-octene copolymerization in parallel pressure reactor, non-metallocene catalyst CAT-3. Conditions: catalyst CAT-3 20 nmol; activator 1.1 equiv; 100° C.; 135 psi; 1-octene 100 uL; TNOAL 0.5 umol. As for the experimental part:
as §1, §2, §3, §4, §5, §6, §7

The nature of assay [5]: Ethylene-octene copolymerization in parallel pressure reactor, non-metallocene catalyst CAT-4. Conditions: catalyst CAT-4 20 nmol; activator 1.1 equiv; 100° C.; 135 psi; 1-octene 100 uL; TNOAL 0.5 umol. As for the experimental part: as §1, §2, §3, §4, §5, §6, §7
[6] abbreviates: Activator Equiv 1.0, TNOAL 0.25 umol, MCN-1 30 nmol, 85° C., propylene 135 psi.
Setting [7] is: Activator Equiv 1.0, TNOAL 0.50 umol, MCN-1 30 nmol, 85° C., propylene 135 psi.
Setting [8] is: Activator Equiv 1.0, TNOAL 0.75 umol, MCN-1 30 nmol, 85° C., propylene 135 psi.
Setting [9] is: Activator Equiv 1.2, TNOAL 0.25 umol, MCN-1 30 nmol, 85° C., propylene 135 psi.
The mark [10] stands for this setting: Activator Equiv 1.2, TNOAL 0.50 umol, MCN-1 30 nmol, 85° C., propylene 135 psi.
[11] abbreviates: Activator Equiv 1.2, TNOAL 0.75 umol, MCN-1 30 nmol, 85° C., propylene 135 psi.
The mark [12] stands for this setting: Activator Equiv 1.4, TNOAL 0.25 umol, MCN-1 30 nmol, 85° C., propylene 135 psi.
[13] abbreviates: Activator Equiv 1.4, TNOAL 0.50 umol, MCN-1 30 nmol, 85° C., propylene 135 psi.
The mark [14] stands for this setting: Activator Equiv 1.4, TNOAL 0.75 umol, MCN-1 30 nmol, 85° C., propylene 135 psi.
[15] abbreviates: Activator Equiv 1.6, TNOAL 0.25 umol, MCN-1 30 nmol, 85° C., propylene 135 psi.
Setting [16] is: Activator Equiv 1.6, TNOAL 0.50 umol, MCN-1 30 nmol, 85° C., propylene 135 psi.
Where [17] appears, read: Activator Equiv 1.6, TNOAL 0.75 umol, MCN-1 30 nmol, 85° C., propylene 135 psi.
[18] abbreviates: propylene 150 psi, 100° C., MCN-1 = 30 nmol, activator = 33 nmol, TNOAL 500 nmol.

As for `CCCCCCCCCCCCCCCCCC[NH+](CCCCCCCCCCCCCCCCCC)c1ccc(C)cc1.Fc1c(F)c(F)c2c(F)c([B-](c3c(F)c(F)c4c(F)c(F)c(F)c(F)c4c3F)(c3c(F)c(F)c4c(F)c(F)c(F)c(F)c4c3F)c3c(F)c(F)c4c(F)c(F)c(F)c(F)c4c3F)c(F)c(F)c2c1F` [DOdTH-BF28, 4-methyl-N,N-dioctadecylbenzenaminium-BF28], the “activity” value in assay [1] (setting [6]) was 271 kg/mmol/h and 259 kg/mmol/h and 246 kg/mmol/h; in assay [1] (setting [7]), 212 kg/mmol/h and 194 kg/mmol/h and 175 kg/mmol/h; in assay [1] (setting [8]), 138 kg/mmol/h and 132 kg/mmol/h and 120 kg/mmol/h; in assay [1] (setting [9]), 354 kg/mmol/h and 295 kg/mmol/h and 281 kg/mmol/h; in assay [1] (setting [10]) it was 242 kg/mmol/h and 211 kg/mmol/h and 191 kg/mmol/h; in assay [1] (setting [11]), 168 kg/mmol/h and 142 kg/mmol/h and 134 kg/mmol/h. The “activity” value was 315 kg/mmol/h and 284 kg/mmol/h and 261 kg/mmol/h in assay [1] (setting [12]); 225 kg/mmol/h and 186 kg/mmol/h and 180 kg/mmol/h in assay [1] (setting [13]); 173 kg/mmol/h and 153 kg/mmol/h and 144 kg/mmol/h in assay [1] (setting [14]); 283 kg/mmol/h and 267 kg/mmol/h in assay [1] (setting [15]); 265 kg/mmol/h and 196 kg/mmol/h and 188 kg/mmol/h in assay [1] (setting [16]); 174 kg/mmol/h and 150 kg/mmol/h and 134 kg/mmol/h in assay [1] (setting [17]). The “activity” value in assay [1] (setting [18]) is 138 kg/mmol/h and 153 kg/mmol/h and 101 kg/mmol/h; in assay [2], 3873 kg/mmol/h and 3497 kg/mmol/h; in assay [3], 1034 kg/mmol/h and 533 kg/mmol/h; in assay [4] it was 838 kg/mmol/h and 829 kg/mmol/h; in assay [5], 48 kg/mmol/h and 46 kg/mmol/h. In addition, in assay [1], the “average catalyst activity, comparison of the four activators (FIG. 6)” value is listed as “somewhat lower activity”.

As to “N,N-dimethylanilinium tetrakis(heptafluoronaphthalen-2-yl)borate [DMAH-BF28, reference compound]”, the “activity” value in assay [1] (setting [6]) is 604 kg/mmol/h and 502 kg/mmol/h; in assay [1] (setting [7]), 394 kg/mmol/h and 352 kg/mmol/h; in assay [1] (setting [8]), 233 kg/mmol/h and 212 kg/mmol/h; in assay [1] (setting [9]), 703 kg/mmol/h and 673 kg/mmol/h; in assay [1] (setting [10]), 506 kg/mmol/h and 459 kg/mmol/h; in assay [1] (setting [11]), 332 kg/mmol/h and 256 kg/mmol/h. Moreover, the “activity” value in assay [1] (setting [12]) is 709 kg/mmol/h and 677 kg/mmol/h; in assay [1] (setting [13]), 554 kg/mmol/h and 431 kg/mmol/h; in assay [1] (setting [14]), 370 kg/mmol/h and 334 kg/mmol/h; in assay [1] (setting [15]), 803 kg/mmol/h; in assay [1] (setting [16]), 511 kg/mmol/h and 467 kg/mmol/h; in assay [1] (setting [17]), 404 kg/mmol/h and 356 kg/mmol/h. Further, the “activity” value in assay [1] (setting [18]) is 175 kg/mmol/h and 231 kg/mmol/h and 160 kg/mmol/h and 121 kg/mmol/h and 211 kg/mmol/h and 188 kg/mmol/h and 190 kg/mmol/h; in assay [1] (propylene, 85 °C, 135 psi, MCN-1 = 20 nmol, activator = 20 nmol, TNOAL 500 nmol), 138 kg/mmol/h; in assay [2], 3494 kg/mmol/h and 3144 kg/mmol/h; in assay [3], 1161 kg/mmol/h and 724 kg/mmol/h; in assay [4] it was 808 kg/mmol/h and 691 kg/mmol/h; in assay [5], 59 kg/mmol/h and 54 kg/mmol/h. Moreover, the “average catalyst activity, comparison of the four activators (FIG. 6)” value in assay [1] is reported as “highest average activities”.

For the origin of these results see US11414436B2, “Non-coordinating anion type activators containing cation having large alkyl groups” (ExxonMobil Chemical Patents Inc., priority 2018, dated 2022).
